Measurements: ChEMBL document CHEMBL3885881, “DrugMatrix”

Species: Rattus norvegicus
Test: DrugMatrix - Regimen: Daily Repeat
Type: toxicity, organism-based, Sprague-Dawley
Set-up: regimen Daily Repeat, gender Male, age 6-8 weeks
Settings: in vivo, po, route oral GAVAGE, vehicle 100 % WATER; for ABSOLUTE BASOPHIL / ABSOLUTE EOSINOPHIL / ABSOLUTE LYMPHOCYTE / ABSOLUTE MONOCYTE / ABSOLUTE SEGMENTED NEUTROPHIL / BASOPHIL / EOSINOPHIL / ERYTHROCYTE COUNT / HEMATOCRIT / HEMOGLOBIN / LEUKOCYTE COUNT / LYMPHOCYTE / MEAN CORPUSCULAR HEMOGLOBIN / MEAN CORPUSCULAR HEMOGLOBIN CONCENTRATION / MEAN CORPUSCULAR VOLUME / MONOCYTE / NEUTROPHIL / NUCLEATED RED BLOOD CELLS / PLATELET COUNT: tissue Blood; for ALANINE AMINOTRANSFERASE / ALBUMIN / ALKALINE PHOSPHATASE / ASPARTATE AMINOTRANSFERASE / BLOOD UREA NITROGEN / CARBON DIOXIDE / CHLORIDE / CHOLESTEROL / CREATINE PHOSPHOKINASE / CREATININE / GLUCOSE / LACTATE DEHYDROGENASE / LIPASE / PHOSPHORUS / POTASSIUM / SODIUM / TOTAL BILIRUBIN / TOTAL PROTEIN / URIC ACID: tissue Plasma
[1] = 25 mg/kg, 120 h, dose level High, time 5 day
[2] = […], 72 h, dose 6.3 mg/Kg, dose level Low, time 3 day
[3] = […], 120 h, dose 6.3 mg/Kg, dose level Low, time 5 day

`O=P1(N(CCCl)CCCl)NCCCO1` (centres undefined) [CYCLOPHOSPHAMIDE ANHYDROUS] was tested, and the “ABSOLUTE BASOPHIL” value [1] was 0 CELLS/uL, the “ABSOLUTE EOSINOPHIL” value [1] was 0 CELLS/uL and the “ABSOLUTE LYMPHOCYTE” value [1] was 1111.67 CELLS/uL. The “ABSOLUTE MONOCYTE” value [1] was 4.33 CELLS/uL, the “ABSOLUTE SEGMENTED NEUTROPHIL” value [1] was 117.33 CELLS/uL and the BASOPHIL [1] was 0%. The EOSINOPHIL [1] was 0%, the “ERYTHROCYTE COUNT” value [1] was 4.84 x10E6/uL and the HEMATOCRIT [1] was 29.43%. For the same compound, the HEMOGLOBIN [1] was 11.47 G/DL, the “LEUKOCYTE COUNT” value [1] was 1.23 x10E3/uL and the LYMPHOCYTE [1] was 90.33%. The “MEAN CORPUSCULAR HEMOGLOBIN” value [1] was 23.77 pg, the “MEAN CORPUSCULAR HEMOGLOBIN CONCENTRATION” value [1] was 39 G/DL and the “MEAN CORPUSCULAR VOLUME” value [1] was 60.93 fL. The MONOCYTE [1] was 0.33%, the NEUTROPHIL [1] was 9.33% and the “NUCLEATED RED BLOOD CELLS” value [1] was 0 /100WBC. The “PLATELET COUNT” value [1] was 645 x10E3/uL, the “ALANINE AMINOTRANSFERASE” value [1] was 44.33 u/L and the ALBUMIN [1] was 3.8 G/DL. The “ALKALINE PHOSPHATASE” value [1] was 227.67 u/L, the “ASPARTATE AMINOTRANSFERASE” value [1] was 67.33 u/L and the “BLOOD UREA NITROGEN” value [1] was 15.33 mg/dL. The “CARBON DIOXIDE” value [1] was 31 mmol/L, the CHLORIDE [1] was 102.33 MEQ/L and the CHOLESTEROL [1] was 78.67 mg/dL. The “CREATINE PHOSPHOKINASE” value [1] was 231 u/L, the CREATININE [1] was 0.16 mg/dL and the GLUCOSE [1] was 147.67 mg/dL. For the same compound, the “LACTATE DEHYDROGENASE” value [1] was 83.33 u/L, the LIPASE [1] was 8.33 u/L and the PHOSPHORUS [1] was 9.97 mg/dL. For the same compound, the POTASSIUM [1] was 5.36 MEQ/L, the SODIUM [1] was 144.37 MEQ/L and the “TOTAL BILIRUBIN” value [1] was 0.1 mg/dL. The “TOTAL PROTEIN” value [1] was 5.37 G/DL, the “URIC ACID” value [1] was 0.33 mg/dL and the “ABSOLUTE BASOPHIL” value [2] was 0 CELLS/uL. For the same compound, the “ABSOLUTE EOSINOPHIL” value [2] was 0 CELLS/uL, the “ABSOLUTE LYMPHOCYTE” value [2] was 7172.67 CELLS/uL and the “ABSOLUTE MONOCYTE” value [2] was 29.33 CELLS/uL. The “ABSOLUTE SEGMENTED NEUTROPHIL” value [2] was 531.33 CELLS/uL, the BASOPHIL [2] was 0% and the EOSINOPHIL [2] was 0%. The “ERYTHROCYTE COUNT” value [2] was 5.43 x10E6/uL, the HEMATOCRIT [2] was 33.63% and the HEMOGLOBIN [2] was 13.3 G/DL. The “LEUKOCYTE COUNT” value [2] was 7.73 x10E3/uL, the LYMPHOCYTE [2] was 92.67% and the “MEAN CORPUSCULAR HEMOGLOBIN” value [2] was 24.53 pg. For the same compound, the “MEAN CORPUSCULAR HEMOGLOBIN CONCENTRATION” value [2] was 39.53 G/DL, the “MEAN CORPUSCULAR VOLUME” value [2] was 62.03 fL and the MONOCYTE [2] was 0.33%. For the same compound, the NEUTROPHIL [2] was 7%, the “NUCLEATED RED BLOOD CELLS” value [2] was 0 /100WBC and the “PLATELET COUNT” value [2] was 1008 x10E3/uL. The “ALANINE AMINOTRANSFERASE” value [2] was 63.67 u/L, the ALBUMIN [2] was 4.1 G/DL and the “ALKALINE PHOSPHATASE” value [2] was 374 u/L. For the same compound, the “ASPARTATE AMINOTRANSFERASE” value [2] was 82.67 u/L, the “BLOOD UREA NITROGEN” value [2] was 14 mg/dL and the “CARBON DIOXIDE” value [2] was 34.33 mmol/L. The CHLORIDE [2] was 99.5 MEQ/L, the CHOLESTEROL [2] was 93.33 mg/dL and the “CREATINE PHOSPHOKINASE” value [2] was 214.67 u/L. The CREATININE [2] was 0.13 mg/dL, the GLUCOSE [2] was 141.67 mg/dL and the “LACTATE DEHYDROGENASE” value [2] was 136 u/L. For the same compound, the LIPASE [2] was 12.67 u/L, the PHOSPHORUS [2] was 11.2 mg/dL and the POTASSIUM [2] was 5.83 MEQ/L. The SODIUM [2] was 145.15 MEQ/L, the “TOTAL BILIRUBIN” value [2] was 0.23 mg/dL and the “TOTAL PROTEIN” value [2] was 5.9 G/DL. For the same compound, the “URIC ACID” value [2] was 0.6 mg/dL, the “ABSOLUTE BASOPHIL” value [3] was 0 CELLS/uL and the “ABSOLUTE EOSINOPHIL” value [3] was 11 CELLS/uL. The “ABSOLUTE LYMPHOCYTE” value [3] was 3359 CELLS/uL, the “ABSOLUTE MONOCYTE” value [3] was 20 CELLS/uL and the “ABSOLUTE SEGMENTED NEUTROPHIL” value [3] was 610 CELLS/uL. The BASOPHIL [3] was 0%, the EOSINOPHIL [3] was 0.33% and the “ERYTHROCYTE COUNT” value [3] was 5.53 x10E6/uL. The HEMATOCRIT [3] was 34.97%, the HEMOGLOBIN [3] was 13.43 G/DL and the “LEUKOCYTE COUNT” value [3] was 4 x10E3/uL. For the same compound, the LYMPHOCYTE [3] was 84%, the “MEAN CORPUSCULAR HEMOGLOBIN” value [3] was 24.37 pg and the “MEAN CORPUSCULAR HEMOGLOBIN CONCENTRATION” value [3] was 38.43 G/DL. The “MEAN CORPUSCULAR VOLUME” value [3] was 63.33 fL, the MONOCYTE [3] was 0.67% and the NEUTROPHIL [3] was 15%. The “NUCLEATED RED BLOOD CELLS” value [3] was 0 /100WBC, the “PLATELET COUNT” value [3] was 1266.67 x10E3/uL and the “ALANINE AMINOTRANSFERASE” value [3] was 56.33 u/L. The ALBUMIN [3] was 4.03 G/DL, the “ALKALINE PHOSPHATASE” value [3] was 346.33 u/L and the “ASPARTATE AMINOTRANSFERASE” value [3] was 83.33 u/L. The “BLOOD UREA NITROGEN” value [3] was 14 mg/dL, the “CARBON DIOXIDE” value [3] was 31.33 mmol/L and the CHLORIDE [3] was 99.5 MEQ/L. For the same compound, the CHOLESTEROL [3] was 65.67 mg/dL, the “CREATINE PHOSPHOKINASE” value [3] was 216.33 u/L and the CREATININE [3] was 0.2 mg/dL. For the same compound, the GLUCOSE [3] was 137.33 mg/dL, the “LACTATE DEHYDROGENASE” value [3] was 136 u/L and the LIPASE [3] was 10.33 u/L. For the same compound, the PHOSPHORUS [3] was 10.6 mg/dL, the POTASSIUM [3] was 5.74 MEQ/L and the SODIUM [3] was 145.9 MEQ/L. For the same compound, the “TOTAL BILIRUBIN” value [3] was 0.17 mg/dL, the “TOTAL PROTEIN” value [3] was 5.9 G/DL and the “URIC ACID” value [3] was 0.53 mg/dL.
